From PubChem BioAssay AID248 (DTP/NCI, 2004) come the findings set out here.

Where “and” joins values, the source holds several entries; their conditions need not be identical. Identical values can stand only once. Inconclusive results and toxic doses are left out.

For the experiment, the system named is L1210 leukemia ip in BDF1 mice, survival T/C. Kind of experiment: NCI In Vivo Anticancer Drug Screen. Data for tumor model L1210 Leukemia (intraperitoneal) in B6D2F1 (BDF1) mice. The conditions noted are these: endpoint: mean survival time, higher = longer survival. A digest of the protocol: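 Tumor was transplanted into mice, which were then dosed with test compound or vehicle alone. Survival was recorded for each group, and the treated figure was expressed relative to the control figure.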

The mark [1] stands for this setting: dose: 100.0 mg/kg/injection, schedule: Q01DX009 (ip), vehicle: saline.
Setting [2] is: dose: 100.0 mg/kg/injection, schedule: Q04DX003 (ip), vehicle: carboxymethylcellulose (CMC).
[3] abbreviates: dose: 200.0 mg/kg/injection, schedule: Q04DX003 (ip), vehicle: carboxymethylcellulose (CMC).
[4] abbreviates: dose: 400.0 mg/kg/injection, schedule: Q04DX003 (ip), vehicle: carboxymethylcellulose (CMC).

Take `[N-]=[N+]=C1C(=O)NC(=O)N2C3CC(O)C(COC12)O3` (stereo not given): the T/C is 110 % of control (dose: 32.0 mg/kg/injection, schedule: Q01DX Z (oral), vehicle: saline); 105 % of control (dose: 63.0 mg/kg/injection, schedule: Q01DX Z (oral), vehicle: saline); 111 % of control under setting [1]; 102 % of control (dose: 100.0 mg/kg/injection, schedule: Q04DX003 (ip), vehicle: saline); 101 % of control (dose: 125.0 mg/kg/injection, schedule: Q01DX Z (oral), vehicle: saline); 106 % of control (dose: 133.0 mg/kg/injection, schedule: Q01DX006 (iv), vehicle: saline). Moreover, the T/C reads like this: (dose: 133.0 mg/kg/injection, schedule: Q01DX Z (ip), vehicle: carboxymethylcellulose (CMC)) 104 % of control; (dose: 133.0 mg/kg/injection, schedule: Q01DX Z (ip), vehicle: saline) 113 % of control and 119 % of control; (dose: 200.0 mg/kg/injection, schedule: Q01DX006 (iv), vehicle: saline) 110 % of control; (dose: 200.0 mg/kg/injection, schedule: Q01DX009 (ip), vehicle: saline) 114 % of control; (dose: 200.0 mg/kg/injection, schedule: Q01DX Z (ip), vehicle: carboxymethylcellulose (CMC)) 105 % of control; (dose: 200.0 mg/kg/injection, schedule: Q01DX Z (ip), vehicle: saline) 117 % of control. The T/C was 107 % of control (dose: 200.0 mg/kg/injection, schedule: Q04DX003 (ip), vehicle: saline); 108 % of control (dose: 250.0 mg/kg/injection, schedule: Q01DX Z (oral), vehicle: carboxymethylcellulose (CMC)); 105 % of control and 107 % of control (dose: 250.0 mg/kg/injection, schedule: Q01DX Z (oral), vehicle: saline); 118 % of control (dose: 300.0 mg/kg/injection, schedule: Q01DX006 (iv), vehicle: saline); 150 % of control (dose: 300.0 mg/kg/injection, schedule: Q01DX Z (ip), vehicle: saline); 107 % of control (dose: 400.0 mg/kg/injection, schedule: Q04DX003 (ip), vehicle: saline). In addition, the T/C by setting is: (dose: 450.0 mg/kg/injection, schedule: Q01DX006 (iv), vehicle: saline) 116 % of control; (dose: 500.0 mg/kg/injection, schedule: Q01DX Z (oral), vehicle: carboxymethylcellulose (CMC)) 98 % of control; (dose: 500.0 mg/kg/injection, schedule: Q01DX Z (oral), vehicle: saline) 107 % of control and 117 % of control; (dose: 675.0 mg/kg/injection, schedule: Q01DX006 (iv), vehicle: saline) 112 % of control; (dose: 675.0 mg/kg/injection, schedule: Q01DX Z (ip), vehicle: saline) 111 % of control; (dose: 800.0 mg/kg/injection, schedule: Q01DX006 (iv), vehicle: saline) 102 % of control. For the same molecule, the T/C is 102 % of control (dose: 1000.0 mg/kg/injection, schedule: Q01DX006 (iv), vehicle: saline); 100 % of control (dose: 1000.0 mg/kg/injection, schedule: Q01DX Z (oral), vehicle: carboxymethylcellulose (CMC)); 107 % of control (dose: 2000.0 mg/kg/injection, schedule: Q01DX Z (oral), vehicle: carboxymethylcellulose (CMC)).
`COc1cc(C)ccc1I`: the T/C (dose: 50.0 mg/kg/injection, schedule: Q01DX001 (ip), vehicle: saline with Tween-80) was 100 % of control; the T/C (dose: 100.0 mg/kg/injection, schedule: Q01DX001 (ip), vehicle: saline with Tween-80) is 100 % of control; the T/C (dose: 200.0 mg/kg/injection, schedule: Q01DX001 (ip), vehicle: saline with Tween-80) was 100 % of control.
Turning to `Cc1c2c(n(C)c1C(=O)N1CCOCC1)CCCC2=O`, the T/C under setting [2] is 101 % of control, the T/C under setting [3] was 98 % of control and the T/C under setting [4] was 98 % of control.
Take `NN(C(=O)c1ccc([N+](=O)[O-])cc1)C1CCCCC1`: the T/C is, setting by setting: (dose: 100.0 mg/kg/injection, schedule: Q04DX003 (ip), vehicle: acetone) 96 % of control; (dose: 200.0 mg/kg/injection, schedule: Q04DX003 (ip), vehicle: acetone) 106 % of control; (dose: 400.0 mg/kg/injection, schedule: Q04DX003 (ip), vehicle: acetone) 93 % of control.
As to `Cc1ccc(C[P+](c2ccccc2)(c2ccccc2)c2ccccc2)cc1`, the T/C was 97 % of control (dose: 2.0 mg/kg/injection, schedule: Q01DX015 (ip), vehicle: saline); 100 % of control (dose: 4.0 mg/kg/injection, schedule: Q01DX015 (ip), vehicle: saline); 102 % of control (dose: 5.0 mg/kg/injection, schedule: Q01DX001 (ip), vehicle: saline); 100 % of control (dose: 8.0 mg/kg/injection, schedule: Q01DX015 (ip), vehicle: saline); 104 % of control (dose: 10.0 mg/kg/injection, schedule: Q01DX001 (ip), vehicle: saline); 93 % of control (dose: 20.0 mg/kg/injection, schedule: Q01DX001 (ip), vehicle: saline). Further, the T/C (dose: 40.0 mg/kg/injection, schedule: Q01DX001 (ip), vehicle: saline) is 96 % of control.
Consider `CCCN(CCC#N)CN1C(=O)c2ccccc2C1=O`, for which the T/C reads like this: (dose: 100.0 mg/kg/injection, schedule: Q01DX001 (ip), vehicle: carboxymethylcellulose (CMC)) 110 % of control; (dose: 100.0 mg/kg/injection, schedule: Q01DX009 (ip), vehicle: carboxymethylcellulose (CMC)) 90 % of control; (dose: 100.0 mg/kg/injection, schedule: Q04DX002 (ip), vehicle: carboxymethylcellulose (CMC)) 98 % of control and 100 % of control; under setting [2], 95 % of control; (dose: 200.0 mg/kg/injection, schedule: Q01DX001 (ip), vehicle: carboxymethylcellulose (CMC)) 113 % of control; (dose: 200.0 mg/kg/injection, schedule: Q01DX009 (ip), vehicle: carboxymethylcellulose (CMC)) 93 % of control. In addition, the T/C (dose: 200.0 mg/kg/injection, schedule: Q04DX002 (ip), vehicle: carboxymethylcellulose (CMC)) is 94 % of control and 102 % of control; the T/C under setting [3] is 101 % of control; the T/C (dose: 400.0 mg/kg/injection, schedule: Q01DX001 (ip), vehicle: carboxymethylcellulose (CMC)) is 97 % of control; the T/C (dose: 400.0 mg/kg/injection, schedule: Q01DX009 (ip), vehicle: carboxymethylcellulose (CMC)) was 100 % of control; the T/C (dose: 400.0 mg/kg/injection, schedule: Q04DX002 (ip), vehicle: carboxymethylcellulose (CMC)) was 94 % of control and 97 % of control; the T/C under setting [4] was 107 % of control.
On to `COc1ccc(CC(C)N)cc1OC` (stereo not given), for which the T/C was 105 % of control (dose: 100.0 mg/kg/injection, schedule: Q04DX002 (ip), vehicle: saline) and 102 % of control (dose: 200.0 mg/kg/injection, schedule: Q04DX002 (ip), vehicle: saline).
Regarding `O=C(Nc1ccccc1)C(CCCN1C(=O)c2ccccc2C1=O)N1C(=O)c2ccccc2C1=O` (stereo not given), the T/C is, setting by setting: (dose: 75.0 mg/kg/injection, schedule: Q01DX001 (ip), vehicle: saline) 100 % of control; (dose: 150.0 mg/kg/injection, schedule: Q01DX001 (ip), vehicle: saline) 104 % of control; (dose: 300.0 mg/kg/injection, schedule: Q01DX001 (ip), vehicle: saline) 96 % of control.
Consider `C1CCC2[N-]CC3CCCCC3[N-]CC3CCCCC3[N-]CC3CCCCC3[N-]CC2C1.[Ni+2].[O-][Cl+3]([O-])([O-])O` (stereo not given), for which the T/C was 101 % of control (dose: 12.5 mg/kg/injection, schedule: Q04DX002 (ip), vehicle: saline with Tween-80); 108 % of control (dose: 25.0 mg/kg/injection, schedule: Q04DX002 (ip), vehicle: saline with Tween-80); 111 % of control (dose: 50.0 mg/kg/injection, schedule: Q04DX002 (ip), vehicle: saline with Tween-80).
Regarding `COc1ccc(Oc2cc(CC3c4cc(OC)c(OC)cc4CCN3C)c([N+](=O)[O-])cc2OC)cc1OC` (stereo not given), the T/C is 93 % of control (dose: 12.5 mg/kg/injection, schedule: Q01DX009 (ip), vehicle: saline); 102 % of control (dose: 25.0 mg/kg/injection, schedule: Q01DX009 (ip), vehicle: saline); 96 % of control (dose: 50.0 mg/kg/injection, schedule: Q01DX009 (ip), vehicle: saline); 108 % of control under setting [1].
`O=C(CNC(=O)c1ccccc1)N/N=C/c1ccncc1`: the T/C was 91 % of control (dose: 25.0 mg/kg/injection, schedule: Q01DX009 (ip), vehicle: saline with Tween-80); 93 % of control (dose: 50.0 mg/kg/injection, schedule: Q01DX009 (ip), vehicle: saline with Tween-80); 86 % of control (dose: 100.0 mg/kg/injection, schedule: Q01DX009 (ip), vehicle: saline with Tween-80).
